Source: ChEMBL document CHEMBL2177034, “Inhibition of hypoxia inducible factor-2 transcription: isolation of active modulators from marine sponges” (J Nat Prod, 2012)
Values belong to the compound of their own block, whether it stands above or below them. The source made the active and inactive calls. The calls are words filed in the database; no cut-off is given here.

Tests used:
[1] = molecular target: T1, Endothelial PAS domain-containing protein 1 (Homo sapiens, UniProt Q99814); test: Inhibition of HIF2alpha in human 786-0 cells expressing truncated HIF1alpha assessed as reduction in luciferase activity after 24 hrs by reporter gene assay; format: cell-based
[2] = molecular target: T1, Endothelial PAS domain-containing protein 1; test: Inhibition of HIF2alpha in human 786-0 cells assessed as reduction in CCND1 mRNA expression at 20 uM after 48 hrs by RT-PCR analysis; format: cell-based
[3] = Downregulation of HIF1alpha mRNA expression in human SK-RC-28 cells at 20 uM after 48 hrs by RT-PCR analysis; format: functional, cell-based
[4] = molecular target: T1, Endothelial PAS domain-containing protein 1; test: Inhibition of HIF2alpha in human 786-0 cells assessed as reduction in GLUT1 mRNA expression at 20 uM after 48 hrs by RT-PCR analysis; format: cell-based
[5] = Downregulation of HIF2alpha mRNA expression in human RCC4 cells at 20 uM after 48 hrs by RT-PCR analysis; format: functional, cell-based
[6] = Downregulation of HIF1alpha mRNA expression in human RCC4 cells at 20 uM after 48 hrs by RT-PCR analysis; format: functional, cell-based
786-0 [7] = test: Cytotoxicity against human 786-0 cells expressing HIF2alpha after 2 days by XTT assay; format: functional, cell-based; details: 786-0, 48 h
[8] = Downregulation of CCND1 mRNA expression in human SK-RC-28 cells at 20 uM after 48 hrs by RT-PCR analysis; format: functional, cell-based
786-0 [9] = test: Inhibition of HIF-mediated VEGFA protein expression in serum deprived human 786-0 cells at 20 uM after 48 hrs relative to control; format: cell-based
[10] = Downregulation of GLUT1 mRNA expression in human SK-RC-28 cells at 20 uM after 48 hrs by RT-PCR analysis; format: functional, cell-based
[11] = molecular target: T1, Endothelial PAS domain-containing protein 1; test: Inhibition of HIF2alpha in human RCC4 cells coexpressing HIF1alpha assessed as reduction in GLUT1 mRNA expression at 20 uM after 48 hrs by RT-PCR analysis; format: cell-based
[12] = Downregulation of TGFalpha mRNA expression in human SK-RC-28 cells at 20 uM after 48 hrs by RT-PCR analysis; format: functional, cell-based
[13] = molecular target: Hypoxia-inducible factor 1-alpha (Homo sapiens) (UniProt Q16665); test: Inhibition of HIF1alpha in human SK-RC-28 cells assessed as reduction in VEGFA expression at 20 uM after 48 hrs by RT-PCR analysis; format: cell-based
[14] = molecular target: T1, Endothelial PAS domain-containing protein 1; test: Inhibition of HIF2alpha in human 786-0 cells assessed as reduction in TGFalpha mRNA expression at 20 uM after 48 hrs by RT-PCR analysis; format: cell-based
[15] = Downregulation of HIF2alpha mRNA expression in human SK-RC-28 cells at 20 uM after 48 hrs by RT-PCR analysis; format: functional, cell-based
786-0 [16] = test: Downregulation of HIF2alpha mRNA expression in human 786-0 cells at 20 uM after 48 hrs by RT-PCR analysis; format: functional, cell-based
[17] = Cytotoxicity against human RCC4 cells expressing HIF2alpha and HIF1alpha after 2 days by XTT assay; format: functional, cell-based; details: RCC4, 48 h
[18] = molecular target: T2, Hypoxia inducible factors; HIF-1-alpha, HIF-2-alpha (Homo sapiens) (UniProt Q16665+Q99814); test: Inhibition of HIF1alpha/2alpha in human RCC4 cells assessed as reduction in VEGFA mRNA expression at 20 uM after 48 hrs by RT-PCR analysis; format: cell-based
[19] = molecular target: T1, Endothelial PAS domain-containing protein 1; test: Inhibition of HIF2alpha in human 786-0 cells assessed as reduction in VEGFA mRNA expression at 20 uM after 48 hrs by RT-PCR analysis; format: cell-based
[20] = molecular target: T1, Endothelial PAS domain-containing protein 1; test: Inhibition of HIF2alpha in human RCC4 cells coexpressing HIF1alpha assessed as reduction in TGFalpha mRNA expression at 20 uM after 48 hrs by RT-PCR analysis; format: cell-based
786-0 [21] = test: Inhibition of total protein expression in serum deprived human 786-0 cells at 20 uM after 48 hrs relative to control; format: cell-based; details: 786-0, 48 h, 20 µM
[22] = Cytotoxicity against human SK-RC-28 cells expressing HIF1alpha after 2 days by XTT assay; format: functional, cell-based; details: 48 h
786-0 [23] = test: Downregulation of HIF1alpha mRNA expression in human 786-0 cells at 20 uM after 48 hrs by RT-PCR analysis; format: functional, cell-based
[24] = molecular target: Hypoxia-inducible factor 1-alpha (Homo sapiens) (UniProt Q16665); test: Induction of HIF1alpha in human RCC4 cells assessed as increase in […] 9 expression at 20 uM after 48 hrs by RT-PCR analysis relative to control; format: cell-based
[25] = molecular target: Hypoxia-inducible factor 1-alpha (Homo sapiens) (UniProt Q16665); test: Inhibition of HIF1alpha in human SK-RC-28 cells assessed as reduction in carbonic anhydrase expression at 20 uM after 48 hrs by RT-PCR analysis; format: cell-based
[26] = molecular target: T1, Endothelial PAS domain-containing protein 1; test: Inhibition of HIF2alpha in human RCC4 cells coexpressing HIF1alpha assessed as reduction in CCND1 mRNA expression at 20 uM after 48 hrs by RT-PCR analysis; format: cell-based
[27] = molecular target: Hypoxia-inducible factor 1-alpha (Homo sapiens) (UniProt Q16665); test: Inhibition of HIF1alpha in human SK-RC-28 cells assessed as reduction in VEGFA at 1 uM after 48 hrs by RT-PCR analysis; format: cell-based
[28] = molecular target: T1, Endothelial PAS domain-containing protein 1; test: Inhibition of HIF2alpha in human 786-0 cells assessed as reduction in CCND1 mRNA expression at 1 uM after 48 hrs by RT-PCR analysis; format: cell-based
[29] = Downregulation of HIF2alpha mRNA expression in human SK-RC-28 cells at 1 uM after 48 hrs by RT-PCR analysis; format: functional, cell-based
[30] = molecular target: T1, Endothelial PAS domain-containing protein 1; test: Inhibition of HIF2alpha in human 786-0 cells assessed as reduction in TGFalpha mRNA expression at 1 uM after 48 hrs by RT-PCR analysis; format: cell-based
[31] = Downregulation of HIF2alpha mRNA expression in human RCC4 cells at 1 uM after 48 hrs by RT-PCR analysis; format: functional, cell-based
[32] = molecular target: T1, Endothelial PAS domain-containing protein 1; test: Inhibition of HIF2alpha in human RCC4 cells coexpressing HIF1alpha assessed as reduction in GLUT1 mRNA expression at 1 uM after 48 hrs by RT-PCR analysis; format: cell-based
[33] = Downregulation of TGFalpha mRNA expression in human SK-RC-28 cells at 1 uM after 48 hrs by RT-PCR analysis; format: functional, cell-based
[34] = molecular target: Hypoxia-inducible factor 1-alpha (Homo sapiens) (UniProt Q16665); test: Inhibition of HIF1alpha in human RCC4 cells coexpressing HIF2alpha assessed as decrease in carbonic anhydrase 9 mRNA expression at 1 uM after 48 hrs by RT-PCR analysis; format: cell-based
786-0 [35] = test: Inhibition of HIF-mediated VEGFA protein expression in serum deprived human 786-0 cells at 1 uM after 48 hrs relative to control; format: cell-based
[36] = molecular target: T1, Endothelial PAS domain-containing protein 1; test: Inhibition of HIF2alpha in human 786-0 cells assessed as reduction in GLUT1 mRNA expression at 1 uM after 48 hrs by RT-PCR analysis; format: cell-based
[37] = Downregulation of HIF1alpha mRNA expression in human SK-RC-28 cells at 1 uM after 48 hrs by RT-PCR analysis; format: functional, cell-based
[38] = molecular target: T2, Hypoxia inducible factors; HIF-1-alpha, HIF-2-alpha (Homo sapiens); test: Inhibition of HIF1alpha/2alpha in human RCC4 cells assessed as reduction in VEGFA mRNA expression at 1 uM after 48 hrs by RT-PCR analysis; format: cell-based
[39] = Downregulation of CCND1 mRNA expression in human SK-RC-28 cells at 1 uM after 48 hrs by RT-PCR analysis; format: functional, cell-based
[40] = Downregulation of HIF1alpha mRNA expression in human RCC4 cells at 1 uM after 48 hrs by RT-PCR analysis; format: functional, cell-based
786-0 [41] = test: Downregulation of HIF1alpha mRNA expression in human 786-0 cells at 1 uM after 48 hrs by RT-PCR analysis; format: functional, cell-based
[42] = molecular target: T1, Endothelial PAS domain-containing protein 1; test: Inhibition of HIF2alpha in human 786-0 cells assessed as reduction in VEGFA at 1 uM after 48 hrs by RT-PCR analysis; format: cell-based
[43] = Downregulation of GLUT1 mRNA expression in human SK-RC-28 cells at 1 uM after 48 hrs by RT-PCR analysis; format: functional, cell-based
786-0 [44] = test: Down regulation of carbonic anhydrase 9 expression in human 786-0 cells at 1 uM after 48 hrs by RT-PCR analysis; format: functional, cell-based
[45] = molecular target: Hypoxia-inducible factor 1-alpha (Homo sapiens) (UniProt Q16665); test: Inhibition of HIF1alpha in human SK-RC-28 cells assessed as reduction in carbonic anhydrase 9 expression at 1 uM after 48 hrs by RT-PCR analysis; format: cell-based
[46] = molecular target: T1, Endothelial PAS domain-containing protein 1; test: Inhibition of HIF2alpha in human RCC4 cells coexpressing HIF1alpha assessed as reduction in TGFalpha mRNA expression at 1 uM after 48 hrs by RT-PCR analysis; format: cell-based
786-0 [47] = test: Downregulation of HIF2alpha mRNA expression in human 786-0 cells at 1 uM after 48 hrs by RT-PCR analysis; format: functional, cell-based
[48] = molecular target: T1, Endothelial PAS domain-containing protein 1; test: Inhibition of HIF2alpha in human RCC4 cells coexpressing HIF1alpha assessed as reduction in CCND1 mRNA expression at 1 uM after 48 hrs by RT-PCR analysis; format: cell-based

Chain of Hypoxia-inducible factor 1-alpha (Homo sapiens) (Q16665 whole entry, looked up, the tested form may be a part): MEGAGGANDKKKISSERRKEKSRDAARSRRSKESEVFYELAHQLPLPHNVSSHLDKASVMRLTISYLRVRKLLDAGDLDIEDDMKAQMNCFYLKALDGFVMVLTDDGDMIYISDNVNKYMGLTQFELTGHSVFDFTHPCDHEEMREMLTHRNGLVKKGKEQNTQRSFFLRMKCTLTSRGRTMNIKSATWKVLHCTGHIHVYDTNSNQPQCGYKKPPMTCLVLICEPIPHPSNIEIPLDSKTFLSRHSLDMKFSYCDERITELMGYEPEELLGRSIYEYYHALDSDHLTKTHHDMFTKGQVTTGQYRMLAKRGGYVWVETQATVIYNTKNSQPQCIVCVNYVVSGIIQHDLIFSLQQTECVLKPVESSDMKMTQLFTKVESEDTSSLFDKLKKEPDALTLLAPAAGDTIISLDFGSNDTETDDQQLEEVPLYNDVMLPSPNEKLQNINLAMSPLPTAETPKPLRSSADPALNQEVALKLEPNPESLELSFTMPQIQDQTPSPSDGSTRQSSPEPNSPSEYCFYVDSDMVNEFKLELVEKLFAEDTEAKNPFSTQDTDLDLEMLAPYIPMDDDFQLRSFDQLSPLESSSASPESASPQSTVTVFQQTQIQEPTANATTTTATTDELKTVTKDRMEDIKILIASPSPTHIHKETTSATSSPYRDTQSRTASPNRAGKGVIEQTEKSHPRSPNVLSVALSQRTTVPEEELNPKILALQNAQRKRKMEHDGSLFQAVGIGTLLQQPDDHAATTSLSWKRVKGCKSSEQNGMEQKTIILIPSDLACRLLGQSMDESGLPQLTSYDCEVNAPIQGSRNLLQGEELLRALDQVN
T1 sequence (Q99814 whole entry, the tested form may be a part): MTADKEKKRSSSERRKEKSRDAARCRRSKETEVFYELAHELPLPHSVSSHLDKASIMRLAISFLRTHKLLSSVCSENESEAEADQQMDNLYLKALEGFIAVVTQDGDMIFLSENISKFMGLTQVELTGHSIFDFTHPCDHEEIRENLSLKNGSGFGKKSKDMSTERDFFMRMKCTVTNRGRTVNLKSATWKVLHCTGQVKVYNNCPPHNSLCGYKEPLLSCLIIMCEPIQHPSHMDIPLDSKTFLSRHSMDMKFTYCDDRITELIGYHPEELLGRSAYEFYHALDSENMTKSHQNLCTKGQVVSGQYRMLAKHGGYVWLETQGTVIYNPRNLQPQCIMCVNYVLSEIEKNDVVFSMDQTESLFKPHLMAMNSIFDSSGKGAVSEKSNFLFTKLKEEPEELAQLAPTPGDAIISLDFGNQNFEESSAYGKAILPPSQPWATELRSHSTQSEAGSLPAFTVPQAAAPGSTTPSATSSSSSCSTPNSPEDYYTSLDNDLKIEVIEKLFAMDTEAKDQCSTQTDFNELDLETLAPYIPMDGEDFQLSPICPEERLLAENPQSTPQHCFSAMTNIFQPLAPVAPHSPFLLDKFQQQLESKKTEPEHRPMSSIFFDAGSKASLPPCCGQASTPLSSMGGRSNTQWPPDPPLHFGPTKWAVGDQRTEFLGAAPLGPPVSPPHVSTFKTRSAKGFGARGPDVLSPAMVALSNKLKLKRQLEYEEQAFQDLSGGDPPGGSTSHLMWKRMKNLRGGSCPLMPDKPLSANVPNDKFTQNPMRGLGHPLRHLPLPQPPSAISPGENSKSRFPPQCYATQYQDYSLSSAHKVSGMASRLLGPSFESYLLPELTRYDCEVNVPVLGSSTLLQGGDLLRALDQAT

EC50 [1]: 1.2 µM
Compound: CC(=O)O[C@@H]1OC=C2[C@@H](OC(C)=O)C[C@H]3[C@]4(C)CC[C@H]5C(C)(C)CCC[C@]5(C)[C@H]4C[C@@H](O)[C@]3(C)[C@H]21 [HETERONEMIN]

EC50 [1]: > 100 µM
Compound: COC1=C(C)C(=O)c2cc(=O)n(C)c(C)c2C1=O [MIMOSAMYCIN]

inhibition [2]: Active | inhibition [4]: Active | EC50 [1]: 3.3 µM | inhibition [11]: Active | inhibition [13]: inactive | inhibition [14]: Active | inhibition [18]: Active | inhibition [19]: Active | inhibition [20]: Active | fold change (FC) [24]: 4 | inhibition [25]: inactive | inhibition [26]: Active
Compound: CC1(C)CCC[C@]2(C)[C@H]3C=C4C=C(O)C(=O)C=C4O[C@@]3(C)CC[C@@H]12 [PUUPEHENONE]
Activity [3]: inactive | Activity [5]: Active | Activity [6]: Active | IC50 (786-0 [7]): 17.7 µM | Activity [8]: inactive | inhibition (786-0 [9]): Active | Activity [10]: inactive | Activity [12]: inactive | Activity [15]: inactive | Activity (786-0 [16]): Active | IC50 [17]: 18 µM | Activity (786-0 [21]): Toxic | IC50 [22]: 15.5 µM | Activity (786-0 [23]): Active

Compound: Nc1nccc(-c2c3c(O)ccnc3n3c(N)nccc23)n1 [VARIOLIN B]
inhibition [27]: inactive | inhibition [28]: inactive | Activity [29]: inactive | inhibition [30]: inactive | Activity [31]: inactive | inhibition [32]: inactive | Activity [33]: inactive | inhibition [34]: inactive | inhibition (786-0 [35]): 50% | IC50 (786-0 [7]): > 100 µM | inhibition [36]: inactive | EC50 [1]: 0.7 µM | Activity [37]: inactive | inhibition [38]: inactive | Activity [39]: inactive | Activity [40]: inactive | Activity (786-0 [41]): inactive | inhibition [42]: inactive | Activity [43]: inactive | IC50 [17]: 8.8 µM | IC50 [22]: > 100 µM | Activity (786-0 [44]): inactive | inhibition [45]: inactive | inhibition [46]: inactive | Activity (786-0 [47]): inactive | inhibition [48]: inactive

EC50 [1]: > 100 µM
Compound: C[C@@]12CCCc3coc(c31)C(=O)c1cc3c(cc12)C(=O)C=CC3=O [XESTOQUINONE]
